Results taken from patent publication US20250100962A1 (CITY OF HOPE, priority 2023, published 2025).

Key:
C3H10T1/2 cells = test: Adipogenic differentiation of C3H10T1/2 mesenchymal precursors; assay type: cell-based; details: for adipogenic factors C/EBPα and PPARγ / mature adipocyte marker expression (FASN): 1 μM, immunoblot; for adipogenic factors C/EBPα and PPARγ: day 7 differentiated; for mature adipocyte formation / lipid accumulation: day 8, oil-red-O and Bodipy
Experimental: Cell culture and adipogenic differentiation. 3T3-L1 and C3H10T1/2 cell lines were obtained from ATCC, and maintained in DMEM with 10% fetal bovine serum supplemented with 1% Penicillin-Streptomycin-Glutamine, as previously described (Nam, Guo, Chatterjee et al., 2015; Liu, Xiong, Nam et al., 2020). 0.25% Trypsin was used for digestion and passaging of these cell lines. For adipogenic differentiation induction media (1.6 μM insulin, 1 μM dexamethasone, 0.5 mM IBMX, 0.5 uM Rosiglitazone) was used for 3 days followed by maintenance medium with insulin for 3 days for 3T3-L1 and 5 days for C3H10T1/2 cells, as previously described (Liu et al., 2020).
Oil-red-O and Bodipy staining. These stainings for neutral lipids during adipogenic differentiation were performed as previously described (Nam et al., 2015). Briefly, for oil-red-O staining, cells were fixed using 10% formalin and incubated using 0.5% oil-red-O solution for 1 hour. Bodipy 493/503 was used at 1 mg/L together with DAPI for 15 minutes, following 4% paraformaldehyde fixation and permeabilization with 0.2% triton-X100.
Immunoblot analysis. Total protein was extracted using lysis buffer containing 3% NaCl, 5% Tris-HCl, 10% Glycerol, 0.5% Triton X-10 in MilliQ water with protease inhibitor cocktail. 20-40 μg of total protein was resolved on 10% SDS-PAGE gels followed by immunoblotting on PVDF membranes (Bio-rad). Membranes were developed by chemiluminescence (SuperSignal West Pico, Pierce Biotechnology) and signals were obtained via a chemiluminescence imager (Amersham Imager 680, GE Biosciences).

Wnt signaling activity = test: TOPFlash luciferase reporter assay (Example 3); assay type: cell-based; details: for TOPFlash reporter activity, Wnt-stimulated: Wnt3a media
Experimental: TOPFlash luciferase reporter assay. M50 Super 8×TOPFlash luciferase reporter containing Wnt-responsive TCF bindings sites was a gift from Randall Moon (Veeman, Slusarski, Kaykas et al., 2003) obtained from Addgene (Addgene plasmid #12456). Cells were seeded and grown overnight, and cell transfection was performed at 90% confluency. 24 hours following transfection, cells were treated using 10% Wnt3a conditioned media obtained from L Wnt-3A cell line (ATCC CRL-2647) to induce luciferase activity. Luciferase activity was assayed using Dual-Luciferase Reporter Assay Kit (Promega) in 96-well black plates. TOPFlash luciferase reporter luminescence was measured on microplate reader (TECAN infinite M200pro) and normalized to control FOPFlash activity, as previously described (Guo et al., 2012). The mean and standard deviation values were calculated for each well and graphed.

[1] = system: dystrophin-deficient mdx primary myoblasts; test: Myogenic differentiation of mdx primary myoblasts (MyHC staining); assay type: cell-based, mouse; details: for mature myofiber/myocyte formation (MyHC staining): 2% FBS, vs DMSO
From the text: FIGS. 16A-16B. Pro-myogenic effect of chlorhexidine on dystrophin-deficient mdx primary myoblasts. FIG. 16A: We used primary myoblasts isolated from male mdx mice as a cellular model to test the effect of CHX on myogenesis. […] Both of the pro-myogenic and proliferative effects of CHX observed in mdx primary myoblasts were consistent with prior findings from C2C12 myoblasts. Additional validations of these effects are on-going using myoblasts derived from human DMD patients.
FIGS. 22A-22B. […] Using primary myoblasts isolated from mdx mice, we determined CM002 effect on myogenesis in this dystrophic disease cellular model. […] Similar as shown in C2C12 myoblasts, this effect was stronger than that of CHX.

mdx mice = test: Direct intramuscular injection into Tibialis Anterior muscle of mdx mice; assay type: in vivo, mouse; details: for Evans Blue Dye (EBD) positive area (muscle damage): 150 ul of 2 uM daily for 3 days; for amount of satellite cells / satellite cell proliferation (EdU+/Pax7+ within Pax7+ pool): 150 μl of 2 μM daily for three days; for transcript levels of clock regulators and myogenic factors / expression of pro-inflammatory cytokines TNF-α, IL-6 and iNOS: RT-qPCR; for transcript levels of clock regulators and myogenic factors: mdx muscle; for expression of pro-inflammatory cytokines TNF-α, IL-6 and iNOS: mdx TA muscle, 3 daily doses; for reduction of creatine kinase (CK) levels, ex vivo TA explants: media of TA explant cultured 24 hours; for myofiber size distribution (cross section area) / Pax7 and CyclinD1 / new myofiber formation (eMyHC staining) / protein levels of clock regulators Bmal1, CLOCK, Rev-erbα / protein levels of myogenic factors: three daily doses; for Pax7 and CyclinD1 / new myofiber formation (eMyHC staining) / protein levels of clock regulators Bmal1, CLOCK, Rev-erbα / protein levels of myogenic factors: 50 μl of 2 μM
From the text: FIGS. 17A-17C. In vivo effect of chlorhexidine on inducing regenerative repair of mdx dystrophic muscle. Based on the effects of CHX on promoting myogenic differentiation, we postulated that it may enhance myogenesis in vivo to promote regenerative repair in dystrophic muscle. […] FIG. 17A: Initial preliminary data was obtained from mice injected with one or two injections (one day apart) of CHX dissolved in DMSO. […] FIG. 17B: Next, we further tested the in vivo effect of CHX by three doses using PBS solution to avoid potential membrane damage by DMSO. […] FIG. 17C: Lastly, we examined the effect of triple CHX injection on clock and myogenic factor proteins in individual and individual mdx muscle. […] Variability observed between individual mice could be due to the in vivo injection.
FIG. 18. In vivo effect of chlorhexidine on inducing nascent myofiber regeneration of mdx dystrophic muscle. To directly examine effect of CHX in vivo injection on dystrophic muscle repair, we performed immunofluorescence staining of embryonic myosin heavy chain (eMyHC) to identify nascent regenerated myofiber using frozen TA cross sections from mdx mice following triple injections. Laminin staining was used to delineate basal lamina of myofiber.
FIGS. 43A-43D. CHX and CM002 promote regenerative myogenesis in dystrophic mdx mice. Based on the effect of CHX and CM002 on promoting regenerative myogenesis, we next tested whether they exert protective effects in dystrophic disease conditions via local intramuscular delivery in the mdx mice, an established model for muscular dystrophy.
FIGS. 44A-44D. CM002 and CHX stimulate satellite cell proliferative expansion and myogenic gene induction in mdx mice. As Pax7 and CyclinD1 levels were increased by CM002 and CHX in mdx TA, we directly examined the proliferation of satellite cells via EdU labeling with co-staining for Pax7 to identify satellite cells.
FIGS. 45A-45D. CM002 and CHX protects against dystrophic muscle damage in mdx mice. Given that local delivery of CHX and CM002 stimulated new myofiber formation to promote regenerative repair, we next examined whether these effects lead to protection against dystrophic injury. […] Most importantly, using ex vivo TA explants, we determined creatine kinase secretion from treated TA muscles as a direct indicator to assess muscle injury.
FIGS. 46A-46D. CHX and CM002 ameliorate inflammatory milieu of muscular dystrophy. Chronic inflammation in dystrophic muscle, due to the persistent muscle damage with sustained degeneration and regeneration cycles, is a significant component of the pathogenic characteristics of muscular dystrophy contributing to muscle wasting. We thus determined potential ameliorative effects of CHX and CM002 on muscle inflammation in the mdx mice. […] To further test whether the reduction of inflammation in muscle could be due to direct modulation of macrophage pro-inflammatory activities, we determined CHX and CM002 effects in primary bone marrow-derived macrophages.

## [H]/N=C(\N/C(=N/[H])NCCCCCCNC(=N)NC(=N)Nc1ccc(Cl)cc1)Nc1ccc(Cl)cc1 [CHX, chlorhexidine]
C3H10T1/2 cells
  adipogenic factors C/EBPα and PPARγ: significantly impaired levels of adipogenic factors
  mature adipocyte marker expression (FASN): attenuated expression of fatty acid synthase
  mature adipocyte formation / lipid accumulation: attenuated mature adipocyte formation
C3H10T1/2 cells; 5 days after adipogenic induction, oil-red-O
  adipogenic maturation, early stage: dose-dependent inhibition of adipogenic maturation
Wnt signaling activity
  TOPFlash reporter activity, basal condition: could induce Wnt signaling activity
  TOPFlash reporter activity, Wnt-stimulated: could induce Wnt signaling activity
[1]; day 3 of differentiation
  pro-myogenic effect in Bmal1-deficient (BMKO/mdx) primary myoblasts: abolished in Bmal1-deficient mdx primary myoblasts
  mature myofiber/myocyte formation (MyHC staining): significantly elevated formation of mature myofibers
Mdx mice
  Evans Blue Dye (EBD) positive area (muscle damage): significantly reduced the areas stained positive for EBD
  amount of satellite cells: not significantly altered
  satellite cell proliferation (EdU+/Pax7+ within Pax7+ pool): sufficient to stimulate satellite cells proliferative expansion in dystrophic muscle to a similar degree
  transcript levels of clock regulators and myogenic factors: corresponding increase of their transcript levels
  expression of pro-inflammatory cytokines TNF-α, IL-6 and iNOS: consistent reduction of expression of the pro-inflammatory cytokines examined
  reduction of creatine kinase (CK) levels, ex vivo TA explants: approximately 50%
  myofiber size distribution (cross section area): striking left shift toward smaller myofibers
  Pax7 and CyclinD1: also induced
  new myofiber formation (eMyHC staining): increased new myofiber formation
  protein levels of clock regulators Bmal1, CLOCK, Rev-erbα: significantly elevated
  protein levels of myogenic factors: elevated protein levels of myogenic factors
Mdx mice; one or two injections, 50 μl of 2 μM in DMSO
  protein expression of clock regulators (CLOCK, Rev-erbα) and myogenic factors (Myf5, Myogenin): stronger inductions by two doses
Mdx mice; three doses in PBS, pooled samples
  Pax7 protein: strongly induced
Mdx mice; triple injection, n=3
  myogenic factors and Bmal1 protein in individual mdx muscle: two of three mice injected with CHX demonstrated marked inductions of myogenic factors together with up-regulation of Bmal1 protein
Mdx mice; triple injections, vs PBS
  eMyHC staining (nascent regenerated myofiber): robust eMyHC indicative of newly-regenerated myofibers

## CCCCCC/C=N/C(=N)NC(=N)Nc1ccc(Cl)cc1 [CM002]
C3H10T1/2 cells
  adipogenic factors C/EBPα and PPARγ: strong inhibition of adipogenic factors C/EBPα and PPARγ
  mature adipocyte marker expression (FASN): substantially lower
  mature adipocyte formation / lipid accumulation: markedly suppressed their differentiation in a dose-dependent manner
Wnt signaling activity
  TOPFlash reporter activity, basal condition: sufficient to stimulate TOPFlash reporter activity to a similar degree as CHX
  TOPFlash reporter activity, Wnt-stimulated: at lower concentrations at 0.1 and 0.2 μM were sufficient to induce TOPFlash reporter activity comparable to that of CHX at 0.5 μM
[1]; 1 μM vs 0.5 μM, day 3
  myotube fusion, cells seeded at low density: more advanced myotube fusion than that of 0.5 μM
[1]; day 3 of differentiation
  mature myofiber/myocyte formation (MyHC staining): significantly enhanced mature myocyte formation induced by 0.5 μM CM002 treatment
Mdx mice
  Evans Blue Dye (EBD) positive area (muscle damage): significantly reduced the areas stained positive for EBD
  amount of satellite cells: not significantly altered
  satellite cell proliferation (EdU+/Pax7+ within Pax7+ pool): sufficient to stimulate satellite cells proliferative expansion in dystrophic muscle to a similar degree
  transcript levels of clock regulators and myogenic factors: corresponding increase of their transcript levels
  expression of pro-inflammatory cytokines TNF-α, IL-6 and iNOS: consistent reduction of expression of the pro-inflammatory cytokines examined
  reduction of creatine kinase (CK) levels, ex vivo TA explants: ~35%
  myofiber size distribution (cross section area): striking left shift toward smaller myofibers
  Pax7 and CyclinD1: also induced
  new myofiber formation (eMyHC staining): increased new myofiber formation
  protein levels of clock regulators Bmal1, CLOCK, Rev-erbα: significantly elevated with stronger effect by CM002
  protein levels of myogenic factors: elevated protein levels of myogenic factors
